Values joined by “and” are separate entries in the source; they are usually repeats but may differ in a detail not shown here. Equal values may be shown once. Inconclusive results and toxic doses are left out. How the source made its calls: active means survival T/C of 150% or more; inactive means T/C below 125% in these data.
Tested on: CD2F1 mice, L1210 leukemia ip, survival T/C
Test: NCI In Vivo Anticancer Drug Screen. Data for tumor model L1210 Leukemia (intraperitoneal) in CD2F1 (CDF1) mice
Settings: higher = longer survival
Outline: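 Mice carrying a transplanted tumor received test compound or vehicle alone. The value is the measurement in the treated group divided by that in the vehicle-treated control group.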

[1] = endpoint: mean survival time, dose: 100.0 mg/kg/injection, schedule: Q04DX003 (ip), vehicle: acetone
[2] = endpoint: mean survival time, dose: 200.0 mg/kg/injection, schedule: Q04DX003 (ip), vehicle: acetone
[3] = endpoint: mean survival time, dose: 25.0 mg/kg/injection, schedule: Q01DX009 (ip), vehicle: saline with Tween-80
[4] = endpoint: mean survival time, dose: 50.0 mg/kg/injection, schedule: Q01DX009 (ip), vehicle: saline with Tween-80
[5] = endpoint: mean survival time, dose: 100.0 mg/kg/injection, schedule: Q01DX009 (ip), vehicle: saline with Tween-80
[6] = endpoint: mean survival time, dose: 100.0 mg/kg/injection, schedule: Q04DX003 (ip), vehicle: saline with Tween-80
[7] = endpoint: mean survival time, dose: 200.0 mg/kg/injection, schedule: Q04DX003 (ip), vehicle: saline with Tween-80
[8] = endpoint: mean survival time, dose: 400.0 mg/kg/injection, schedule: Q04DX003 (ip), vehicle: saline with Tween-80
[9] = endpoint: mean survival time, dose: 200.0 mg/kg/injection, schedule: Q01DX009 (ip), vehicle: saline with Tween-80
[10] = endpoint: mean survival time, dose: 400.0 mg/kg/injection, schedule: Q01DX009 (ip), vehicle: saline with Tween-80
[11] = endpoint: mean survival time, dose: 12.5 mg/kg/injection, schedule: Q01DX009 (ip), vehicle: saline with Tween-80

Measured: T/C

CC(O)C1OC(n2cnc3c(=O)[nH]c(N)nc32)C(O)C1O (stereo not given)
inactive: endpoint: mean survival time, dose: 12.5 mg/kg/injection, schedule: Q01DX005 (ip), vehicle: distilled water + Tween-80 101 % of control | endpoint: mean survival time, dose: 25.0 mg/kg/injection, schedule: Q01DX005 (ip), vehicle: distilled water + Tween-80 100 % of control | endpoint: mean survival time, dose: 50.0 mg/kg/injection, schedule: Q01DX005 (ip), vehicle: distilled water + Tween-80 101 % of control | endpoint: mean survival time, dose: 100.0 mg/kg/injection, schedule: Q01DX005 (ip), vehicle: distilled water + Tween-80 97 % of control | endpoint: mean survival time, dose: 200.0 mg/kg/injection, schedule: Q01DX005 (ip), vehicle: distilled water + Tween-80 97 % of control | endpoint: median survival time, dose: 12.5 mg/kg/injection, schedule: Q01DX005 (ip), vehicle: distilled water + Tween-80 112 % of control | endpoint: median survival time, dose: 20.0 mg/kg/injection, schedule: Q01DX005 (ip), vehicle: distilled water + Tween-80 108 % of control | endpoint: median survival time, dose: 50.0 mg/kg/injection, schedule: Q01DX005 (ip), vehicle: distilled water + Tween-80 112 % of control | endpoint: median survival time, dose: 100.0 mg/kg/injection, schedule: Q01DX005 (ip), vehicle: distilled water + Tween-80 104 % of control | endpoint: median survival time, dose: 200.0 mg/kg/injection, schedule: Q01DX005 (ip), vehicle: distilled water + Tween-80 96 % of control

C#CCOCCCC(=O)O
inactive: [1] 101 % of control | [2] 101 % of control | endpoint: mean survival time, dose: 400.0 mg/kg/injection, schedule: Q04DX003 (ip), vehicle: acetone 95 % of control

O=C(O)c1ccc(CCCBr)cc1
inactive: endpoint: mean survival time, dose: 100.0 mg/kg/injection, schedule: Q04DX003 (ip), vehicle: other 107 % of control | endpoint: mean survival time, dose: 200.0 mg/kg/injection, schedule: Q04DX003 (ip), vehicle: other 106 % of control | endpoint: mean survival time, dose: 400.0 mg/kg/injection, schedule: Q04DX003 (ip), vehicle: other 101 % of control

CN1CCc2cc3c(cc2C(=O)Cc2ccc4c(c2C1)OCO4)OCO3
inactive: [3] 98 % of control | [4] 101 % of control | [5] 103 % of control

Clc1c(Cl)c(CBr)c(Cl)c(-c2c(Cl)c(Cl)c(Cl)c(CBr)c2Cl)c1Cl
inactive: [6] 93 % of control | [7] 107 % of control | [8] 104 % of control

O=C1NC(=O)C2C3C=CC(C3)C12 (stereo not given)
inactive: endpoint: mean survival time, dose: 12.5 mg/kg/injection, schedule: Q04DX002 (ip), vehicle: saline with Tween-80 93 % of control | endpoint: mean survival time, dose: 25.0 mg/kg/injection, schedule: Q04DX002 (ip), vehicle: saline with Tween-80 93 % of control | endpoint: mean survival time, dose: 50.0 mg/kg/injection, schedule: Q04DX002 (ip), vehicle: saline with Tween-80 97 % of control | endpoint: mean survival time, dose: 100.0 mg/kg/injection, schedule: Q01DX009 (ip), vehicle: saline sonified 96 % of control | [6] 94 % of control | endpoint: mean survival time, dose: 200.0 mg/kg/injection, schedule: Q01DX009 (ip), vehicle: saline sonified 96 % of control | [7] 101 % of control | endpoint: mean survival time, dose: 400.0 mg/kg/injection, schedule: Q01DX009 (ip), vehicle: saline sonified 98 % of control | [8] 100 % of control

S=C(Nc1ccccn1)NC1CC2C=CC1C2 (stereo not given)
inactive: endpoint: mean survival time, dose: 100.0 mg/kg/injection, schedule: Q01DX001 (ip), vehicle: saline with Tween-80 93 % of control | endpoint: mean survival time, dose: 200.0 mg/kg/injection, schedule: Q01DX001 (ip), vehicle: saline with Tween-80 101 % of control | endpoint: mean survival time, dose: 400.0 mg/kg/injection, schedule: Q01DX001 (ip), vehicle: saline with Tween-80 108 % of control

CC1CN=C(c2ccc(NC(=O)Nc3ccc(NC(=O)c4ccc(C5=NCC(C)N5)cc4)cc3)cc2)N1 (stereo not given)
inactive: endpoint: mean survival time, dose: 26.0 mg/kg/injection, schedule: Q01DX Z (ip), vehicle: water 90 % of control

CN(C)c1ccc(C=NCCCN=Cc2ccc(N(C)C)cc2)cc1
inactive: [5] 96 % of control | [6] 95 % of control | [9] 90 % of control | [7] 107 % of control | [10] 93 % of control | [8] 86 % of control

O=C1c2cccc(NCCCNCCO)c2C(=O)c2cccc(NCCCNCCO)c21
inactive: endpoint: median survival time, dose: 6.25 mg/kg/injection, schedule: Q01DX009 (ip), vehicle: acid diluted with saline 105 % of control | endpoint: median survival time, dose: 12.5 mg/kg/injection, schedule: Q01DX009 (ip), vehicle: acid diluted with saline 117 % of control | endpoint: median survival time, dose: 25.0 mg/kg/injection, schedule: Q01DX009 (ip), vehicle: acid diluted with saline 116 % of control | endpoint: median survival time, dose: 50.0 mg/kg/injection, schedule: Q01DX009 (ip), vehicle: acid diluted with saline 88 % of control

CC(Cc1ccccc1)NC(N)=O (stereo not given)
inactive: [11] 100 % of control | [3] 97 % of control | [4] 92 % of control

CCCCN(CCCC)CC(C)(O)c1cc(-c2ccc(Cl)cc2)nc2c(C)cc(C)cc12 (stereo not given)
inactive: [6] 87 % of control | [7] 89 % of control

OCC1OC(c2cccs2)C(O)C1O (stereo not given)
inactive: endpoint: median survival time, dose: 12.5 mg/kg/injection, schedule: Q01DX005 (ip), vehicle: saline 102 % of control | endpoint: median survival time, dose: 25.0 mg/kg/injection, schedule: Q01DX005 (ip), vehicle: saline 98 % of control | endpoint: median survival time, dose: 50.0 mg/kg/injection, schedule: Q01DX005 (ip), vehicle: saline 92 % of control | endpoint: median survival time, dose: 100.0 mg/kg/injection, schedule: Q01DX005 (ip), vehicle: saline 98 % of control | endpoint: median survival time, dose: 200.0 mg/kg/injection, schedule: Q01DX005 (ip), vehicle: saline 106 % of control

Nc1nc(N)c2cc(CNc3ccc(C(=O)NC(CC(=O)O)C(=O)O)c(Cl)c3)ccc2n1 (stereo not given)
active: endpoint: mean survival time, dose: 5.0 mg/kg/injection, schedule: Q01DX001 (ip), vehicle: saline 160 % of control

O=C(Nc1cccc2ccccc12)OCCCBr
inactive: endpoint: mean survival time, dose: 3.13 mg/kg/injection, schedule: Q01DX009 (ip), vehicle: saline with Tween-80 97 % of control | endpoint: mean survival time, dose: 6.25 mg/kg/injection, schedule: Q01DX009 (ip), vehicle: saline with Tween-80 103 % of control | [11] 94 % of control and 101 % of control | [4] 86 % of control

Cc1cc(=O)n2c3c(c4c(cc13)c(CN(C)C)cc(=O)n4C)OC2
inactive: endpoint: median survival time, dose: 6.0 mg/kg/injection, schedule: Q01DX009 (ip), vehicle: saline with Tween-80 110 % of control | endpoint: median survival time, dose: 12.0 mg/kg/injection, schedule: Q01DX009 (ip), vehicle: saline with Tween-80 101 % of control | endpoint: median survival time, dose: 12.5 mg/kg/injection, schedule: Q01DX009 (ip), vehicle: saline with Tween-80 100 % of control | endpoint: median survival time, dose: 25.0 mg/kg/injection, schedule: Q01DX009 (ip), vehicle: saline with Tween-80 119 % of control and 110 % of control | endpoint: median survival time, dose: 100.0 mg/kg/injection, schedule: Q01DX009 (ip), vehicle: saline with Tween-80 97 % of control

C=CCOCC(O)CNCC(O)COCC=C (stereo not given)
inactive: [6] 100 % of control

O=S1(=O)C=Cc2ccccc2O1
inactive: endpoint: mean survival time, dose: 75.0 mg/kg/injection, schedule: Q01DX009 (ip), vehicle: saline 102 % of control | endpoint: mean survival time, dose: 75.0 mg/kg/injection, schedule: Q04DX003 (ip), vehicle: saline 97 % of control | endpoint: mean survival time, dose: 150.0 mg/kg/injection, schedule: Q01DX009 (ip), vehicle: saline 102 % of control | endpoint: mean survival time, dose: 150.0 mg/kg/injection, schedule: Q04DX003 (ip), vehicle: saline 95 % of control | endpoint: mean survival time, dose: 300.0 mg/kg/injection, schedule: Q01DX009 (ip), vehicle: saline 100 % of control | endpoint: mean survival time, dose: 300.0 mg/kg/injection, schedule: Q04DX003 (ip), vehicle: saline 97 % of control

O=C(O)c1cccc(-c2ccccc2)c1
active: endpoint: mean survival time, dose: 200.0 mg/kg/injection, schedule: Q01DX009 (ip), vehicle: saline 154 % of control
inactive: endpoint: mean survival time, dose: 100.0 mg/kg/injection, schedule: Q01DX009 (ip), vehicle: saline 104 % of control | endpoint: mean survival time, dose: 400.0 mg/kg/injection, schedule: Q01DX009 (ip), vehicle: saline 93 % of control

CNC/C(C)=C/Br
inactive: endpoint: mean survival time, dose: 50.0 mg/kg/injection, schedule: Q01DX009 (ip), vehicle: acetone 101 % of control | [1] 101 % of control | [2] 97 % of control

O=[N+]([O-])c1ccc(CCCl)c(CCl)c1
inactive: [6] 98 % of control | [7] 86 % of control

CN(C)c1ccc(N=C(C#N)C(=O)c2ccccc2)cc1
inactive: [5] 95 % of control | [9] 97 % of control | [10] 97 % of control

O=S(=O)(/N=C/c1ccccc1)c1ccc(Cl)cc1
inactive: [4] 100 % of control | [5] 107 % of control

O=C(OCCCCI)c1ccccc1
inactive: endpoint: mean survival time, dose: 75.0 mg/kg/injection, schedule: Q01DX001 (ip), vehicle: saline 97 % of control | endpoint: mean survival time, dose: 150.0 mg/kg/injection, schedule: Q01DX001 (ip), vehicle: saline 102 % of control | endpoint: mean survival time, dose: 300.0 mg/kg/injection, schedule: Q01DX001 (ip), vehicle: saline 97 % of control

OCP(CO)CO.[Cl][Hg][Cl]
inactive: endpoint: mean survival time, dose: 12.5 mg/kg/injection, schedule: Q04DX003 (ip), vehicle: saline 119 % of control | endpoint: mean survival time, dose: 25.0 mg/kg/injection, schedule: Q04DX003 (ip), vehicle: saline 116 % of control
